According to publication PMC11645267, “Novel pharmacologic inhibition of lysine-specific demethylase 1 as a potential therapeutic for glioblastoma” (Cancer Gene Therapy, 2024):

Tested on: KINGS1
Experiment: Stemness marker expression (qPCR, western blot)
Assay type: cell-based
Conditions: KINGS1, 5 μM, 96 h
Text: Super-enhancers consist of enhancer clusters with abundant binding of transcription factors and are highly enriched with H3K27ac marks. The H3K4me2 increased regions included the MYC locus and H3K4me2 de novo regions comprised Nestin and SOX2 loci (Fig. 2F, Supplementary Fig. S5A). These regions were also identified as super-enhancers in GSCs using data from our previous study (Fig. 2F). Compared to the large increase in H3K4me2 in these regions, changes in H3K4me3 were subtle after S2172 treatment (only 2582 regions were acquired modification) (Fig. 2C). Increasing the me2/me3 ratio at H3K4 is associated with reduced gene expression. […]
instructions. For GSC cells, the CellTiter-Glo 3D Viability Assay (Promega, Madison, WI, USA) was used to measure the living cells. All proliferation experiments were repeated […]
Total RNA from the cell lines was extracted using TRIzol (Thermo Fisher Scientific), followed by reverse-transcription using Prime Script RT Master Mix (Takara, Kusatsu, Japan). […]
B. Western blot analysis of LSD1,MYC, Nestin, SOX2,and ACTB in same cells as shown in panel A. ACTB was used as a loading control. […] Quantification of signal intensities of the Western blot (right panel). […] Right panel: Quantification of band signal intensities from the Western blot. […] The ratio was calculated by dividing the cleaved PARP band intensity by the full-length PARP band intensity. […]

Q: Which “stemness marker expression at mRNA and protein levels” value does the source give for `NC1CCC(NC2CC2c2cc(F)cc(F)c2OCc2ccccc2)CC1` (stereo not shown) [S2172] here?
A: did not show significant changes
